In patent US20140275094A1, “METHOD FOR TREATING PULMONARY ARTERIAL HYPERTENSION IN A PATIENT NOT HAVING IDIOPATHIC PULMONARY FIBROSIS” (GILEAD SCIENCES, INC., priority 2012, published 2014):

Assays:
[1] = target: T1, multidrug resistance protein 2 (MRP2) (Homo sapiens, UniProt Q92887); experiment: Inhibition of hepatic transporter MRP2, transfected Sf9 cells; type: cell-based
T1 construct: expressed in transfected cells; host or cells: Spodoptera frugiperda (Sf9) ovarian cells
Protocol: (§1) Inhibition constants (IC50) were measured for human bile salt export pump (BSEP), sodium taurocholate cotransporting polypeptide (NTCP), multidrug resistance protein 2 (MRP2), P-glycoprotein (Pgp), breast cancer resistance protein (BCRP), organic anion-transporting polypeptide 1B1 (OATP1B1), and OATP1B3 in transfected cell-lines. Known inhibitors were used as positive controls.

P-glycoprotein (Pgp) = target: T2, P-glycoprotein (Pgp) (Homo sapiens, UniProt P08183); experiment: Inhibition of Pgp, transfected MDCKII cells; type: cell-based; conditions: human, transfected MDCKII cells
T2 construct: expressed in transfected cells; host or cells: Madin-Darby canine kidney strain II (MDCKII)
Protocol: as §1

patients with PAH = experiment: Long-term follow-up of the two pivotal studies and open-label extension; type: in vivo, human; conditions: 2.5, 5 or 10 mg once daily, N=383
Protocol: Long-term Treatment of PAH: In long-term follow-up of patients who were treated with ambrisentan (2.5 mg, 5 mg, or 10 mg once daily) in the two pivotal studies and their open-label extension (N=383), Kaplan-Meier estimates of survival at 1, 2, and 3 years were 93%, 85%, and 79%, respectively. Of the patients who remained on ambrisentan for up to 3 years, the majority received no other treatment for PAH.

[2] = Post-marketing spontaneous and clinical serious adverse event hepatic data (LEAP), 2 years after first approval; type: in vivo, human
Excerpt: During the 2-year period since ambrisentan was first approved, the vast majority of patient exposure had been in the U.S. through Letairis Education and Access Program (LEAP). As of 14 Jun. 2009, a total of 6,622 patients had enrolled in LEAP and received at least one shipment of ambrisentan. Approximately half of the patients for whom duration of therapy was available received ambrisentan for a period of at least 6 months, resulting in a total of 3,847 patient-years of exposure. Exposure duration is depicted in FIG. 3 showing LEAP patients by exposure duration.
A total of 120 post-marketing spontaneous reports were identified for the 2-year period (15 Jun. 2007 through 14 Jun. 2009) where 119 reports were received via LEAP in the U.S. and the remaining one was received from Germany (outside of LEAP). As of 31 Mar. 2009, there were […] of exposure to ambrisentan. All reports were actively followed up in accordance with Gilead Drug Safety procedures to obtain all important information needed to assess a potential relationship with ambrisentan therapy, particularly laboratory data, medical history and concurrent medications. All reports included potential alternative causes for the hepatic events which are unrelated to ambrisentan therapy, such as right-sided heart failure due to underlying PAH, other co-morbidities or concurrent medications.
Of the 120 spontaneous reports, 55 reports were medically-confirmed suspected adverse reaction reports. A total of 28 cases were considered “clinically significant hepatic events” which are defined as (1) ALT and/or AST increases >3×ULN, (2) serum total bilirubin increases >2×ULN, (3) any hepatic event associated with potential signs/symptoms of hepatic disease, or (4) any clinically significant hepatic event term (e.g., liver failure). These cases included 24 reports of serum aminotransferase (ALT/AST) increases >3×ULN; 3 reports of elevated serum total bilirubin>2×ULN; and 1 report of elevated serum aminotransferases with signs and symptoms, but AST and ALT values were not provided. Of these 28 cases, there were 3 reports of both elevated ALT/AST>3×ULN and serum total bilirubin>2×ULN. However, these reports included probable alternate causes of the hepatic events such as sickle cell disease in a patient with baseline serum total bilirubin of ‘7.7’, suspected gall bladder disease in a patient who developed increased serum total bilirubin (5×ULN) and alkaline phosphatase (3.3×ULN) 11 days before an increase in ALT to 3.1×ULN, and documented cardiogenic shock and right-sided heart failure due to PAH.
There were 7 drug-related serious adverse event (SAE) reports from clinical studies which had evidence of alternative causes of the hepatic events or were poorly documented. Six of the reports were considered clinically significant, including one case where ALT/AST was >3×ULN and serum total bilirubin>2×ULN. However, probable causes of the hepatic events in this case included concurrent right heart failure, diagnosed after the patient admitted missing several doses of ambrisentan and 3-4 days of sildenafil and furosemide and with a baseline serum total bilirubin of 1.7×ULN.
The estimated post-marketing incidence rate of hepatic events with ambrisentan in the U.S. during the 2-year post-marketing period is 1.8% (119/6622), detected through LEAP. This rate is consistent with the background rate of placebo-treated PAH patients in clinical trials evaluating ERAs which appeared to have an incidence rate of 2%-3% over a 12- to 24-week period.

[3] = Cumulative incidence of treatment-emergent serum aminotransferase abnormalities in clinical trials; type: in vivo, human
Excerpt: The ambrisentan clinical development program included placebo-controlled and non-placebo-controlled studies. One Phase 2 study (AMB-220) and two Phase 3 studies (AMB-320 and AMB-321) were completed at the time of the NDA submission. Three ongoing studies (AMB-220-E, AMB-222, and AMB-320/321-E) provided additional data in both the original NDA and the 4-month safety update, and data from one additional ongoing study (AMB-323) were included in the 4-month safety update.
The cumulative incidence of aminotransferase elevations by severity, summarized as a percentage of the cumulative number of subjects who received ambrisentan in clinical trials, is provided in Table 1. The cumulative incidence of aminotransferase elevations>3×ULN (upper limit of the normal range) accompanied by total bilirubin>2×ULN was 0.3% (2 subjects, both with alternative causes for the liver function test (LFT) abnormalities); the associated mean exposure to ambrisentan was 112.5 weeks (maximum, 341.0 weeks). In comparison, during the 12-week placebo controlled trials, 1 patient (1/132, 0.7%) receiving placebo had elevated aminotransferases (both alanine transaminase (ALT) and aspartate transaminase (AST) were >5×ULN) along with elevated total bilirubin (>2×ULN).

[4] = among the 28 clinically significant cases
[5] = >3 × ULN and total bilirubin > 2 × ULN, N = 707
[6] = Total > 3 × ULN, all subjects N = 707

T2 sequence (P08183 whole entry): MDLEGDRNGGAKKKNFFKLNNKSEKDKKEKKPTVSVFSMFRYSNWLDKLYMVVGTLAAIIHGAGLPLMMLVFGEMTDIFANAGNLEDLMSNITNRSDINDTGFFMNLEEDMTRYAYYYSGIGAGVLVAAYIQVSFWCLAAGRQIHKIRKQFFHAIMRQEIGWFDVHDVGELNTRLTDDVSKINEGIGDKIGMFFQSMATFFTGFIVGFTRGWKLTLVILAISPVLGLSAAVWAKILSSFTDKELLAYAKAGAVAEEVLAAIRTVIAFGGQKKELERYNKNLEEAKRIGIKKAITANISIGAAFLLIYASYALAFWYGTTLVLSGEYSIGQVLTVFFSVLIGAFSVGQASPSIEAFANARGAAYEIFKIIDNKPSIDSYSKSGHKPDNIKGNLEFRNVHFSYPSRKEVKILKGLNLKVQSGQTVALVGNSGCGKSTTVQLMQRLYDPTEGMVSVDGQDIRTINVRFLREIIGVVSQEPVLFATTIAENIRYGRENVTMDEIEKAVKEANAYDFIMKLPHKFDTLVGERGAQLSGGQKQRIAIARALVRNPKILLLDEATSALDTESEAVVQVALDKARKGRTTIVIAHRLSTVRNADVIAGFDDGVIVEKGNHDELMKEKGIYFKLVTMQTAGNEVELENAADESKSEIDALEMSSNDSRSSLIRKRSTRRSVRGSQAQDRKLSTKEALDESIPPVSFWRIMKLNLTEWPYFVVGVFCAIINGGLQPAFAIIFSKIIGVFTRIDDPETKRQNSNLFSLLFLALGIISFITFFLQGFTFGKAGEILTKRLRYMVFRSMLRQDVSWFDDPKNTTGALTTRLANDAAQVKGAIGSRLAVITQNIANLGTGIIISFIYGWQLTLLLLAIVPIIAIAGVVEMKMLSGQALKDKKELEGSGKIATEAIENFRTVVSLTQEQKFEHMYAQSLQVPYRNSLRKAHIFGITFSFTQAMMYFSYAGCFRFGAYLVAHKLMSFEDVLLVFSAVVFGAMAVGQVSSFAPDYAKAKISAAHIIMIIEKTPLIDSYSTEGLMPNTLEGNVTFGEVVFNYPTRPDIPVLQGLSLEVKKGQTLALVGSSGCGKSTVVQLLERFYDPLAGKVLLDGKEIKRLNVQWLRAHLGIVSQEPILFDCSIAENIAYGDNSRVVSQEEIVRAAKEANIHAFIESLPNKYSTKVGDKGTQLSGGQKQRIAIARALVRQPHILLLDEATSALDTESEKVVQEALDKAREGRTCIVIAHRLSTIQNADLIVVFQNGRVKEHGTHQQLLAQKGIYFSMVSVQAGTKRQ
T1 sequence (Q92887 whole entry): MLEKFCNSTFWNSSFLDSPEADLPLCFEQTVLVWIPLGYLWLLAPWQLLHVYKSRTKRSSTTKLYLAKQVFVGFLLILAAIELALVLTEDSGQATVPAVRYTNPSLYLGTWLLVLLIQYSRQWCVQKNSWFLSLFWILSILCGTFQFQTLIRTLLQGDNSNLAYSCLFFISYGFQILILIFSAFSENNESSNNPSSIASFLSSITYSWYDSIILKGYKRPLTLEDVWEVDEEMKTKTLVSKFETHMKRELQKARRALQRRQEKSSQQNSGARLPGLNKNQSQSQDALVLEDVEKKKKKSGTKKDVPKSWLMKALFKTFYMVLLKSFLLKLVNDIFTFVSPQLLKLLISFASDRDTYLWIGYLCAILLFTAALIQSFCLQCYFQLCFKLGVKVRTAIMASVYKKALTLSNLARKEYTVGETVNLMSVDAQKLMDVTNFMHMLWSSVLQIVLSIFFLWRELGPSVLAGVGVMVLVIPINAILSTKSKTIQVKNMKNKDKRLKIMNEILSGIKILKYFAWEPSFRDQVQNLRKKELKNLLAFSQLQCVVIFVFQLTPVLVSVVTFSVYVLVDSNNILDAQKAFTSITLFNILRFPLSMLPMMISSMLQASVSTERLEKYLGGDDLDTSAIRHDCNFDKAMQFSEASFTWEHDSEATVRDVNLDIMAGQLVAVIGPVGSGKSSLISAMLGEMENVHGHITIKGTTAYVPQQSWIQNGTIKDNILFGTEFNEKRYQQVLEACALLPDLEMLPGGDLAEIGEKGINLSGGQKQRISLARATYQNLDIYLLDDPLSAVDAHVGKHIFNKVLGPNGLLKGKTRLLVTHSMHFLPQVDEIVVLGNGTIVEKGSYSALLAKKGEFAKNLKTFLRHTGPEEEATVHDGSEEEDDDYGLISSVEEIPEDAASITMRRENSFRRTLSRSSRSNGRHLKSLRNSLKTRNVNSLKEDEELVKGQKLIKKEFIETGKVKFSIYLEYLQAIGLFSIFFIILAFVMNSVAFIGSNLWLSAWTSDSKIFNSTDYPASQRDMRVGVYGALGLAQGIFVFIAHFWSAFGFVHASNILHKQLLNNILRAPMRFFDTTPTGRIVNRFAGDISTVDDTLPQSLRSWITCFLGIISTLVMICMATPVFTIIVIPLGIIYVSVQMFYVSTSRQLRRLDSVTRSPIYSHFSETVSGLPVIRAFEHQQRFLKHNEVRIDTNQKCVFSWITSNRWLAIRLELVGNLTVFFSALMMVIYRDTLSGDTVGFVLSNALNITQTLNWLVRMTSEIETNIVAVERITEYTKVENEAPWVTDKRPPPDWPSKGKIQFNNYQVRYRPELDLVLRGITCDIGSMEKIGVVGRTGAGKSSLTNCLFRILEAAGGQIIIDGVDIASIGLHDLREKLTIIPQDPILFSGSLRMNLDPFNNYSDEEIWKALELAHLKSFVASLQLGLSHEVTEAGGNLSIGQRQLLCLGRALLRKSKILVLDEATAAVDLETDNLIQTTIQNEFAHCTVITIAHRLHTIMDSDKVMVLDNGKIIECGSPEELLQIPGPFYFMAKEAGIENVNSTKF

SMILES: COc1ccccc1Oc1c(NS(=O)(=O)c2ccc(C(C)(C)C)cc2)nc(-c2ncccn2)nc1OCCO [Bosentan]
- IC50 [1]: > 100 µM
- IC50 (P-glycoprotein (Pgp)): > 100 µM

SMILES: COC(c1ccccc1)(c1ccccc1)[C@H](Oc1nc(C)cc(C)n1)C(=O)O [Ambrisentan, (25)-2-[(4,6-dimethylpyrimidin-2-yl)oxy]-3-methoxy-3,3-diphenylpropanoic acid]
- Kaplan-Meier estimate of survival (patients with PAH; at 1 year): 93%
- Kaplan-Meier estimate of survival (patients with PAH; at 2 years): 85%
- Kaplan-Meier estimate of survival (patients with PAH; at 3 years): 79%
- post-marketing spontaneous reports of hepatic events, number ([2]; 15 Jun. 2007 through 14 Jun. 2009): 120
- estimated post-marketing incidence rate of hepatic events ([2]; U.S., 2-year post-marketing period, LEAP (119/6622)): 1.8%
- reports of both elevated ALT/AST >3×ULN and serum total bilirubin >2×ULN, number [2, 4]: 3
- reports of elevated serum total bilirubin >2×ULN, number [2, 4]: 3
- reports of serum aminotransferase (ALT/AST) increases >3×ULN, number [2, 4]: 24
- drug-related serious adverse event (SAE) reports from clinical studies, number ([2]; hepatic events): 7
- cases considered clinically significant hepatic events, number ([2]; of 55 medically-confirmed suspected adverse reaction reports): 28
- incidence of hepatic events (adverse events and elevated aminotransferase levels) ([2]; post-marketing data): approximately 2%
- ALT/AST elevations, patient number ([3]; >3 to ≦5 × ULN, N = 707): 25
- ALT/AST elevations, patients (%) ([3]; >3 to ≦5 × ULN, N = 707): (3.5) %
- ALT/AST elevations, patient number [3, 5]: 2
- ALT/AST elevations, patients (%) [3, 5]: (0.3) %
- ALT/AST elevations, patients (%) ([3]; >3 × ULN and total bilirubin > 2 × ULN, N = 707, listed as ambrisentan): 0.3%
- ALT/AST elevations, patient number ([3]; >5 to ≦8 × ULN, N = 707): 1
- ALT/AST elevations, patients (%) ([3]; >5 to ≦8 × ULN, N = 707): (0.1) %
- ALT/AST elevations, patient number ([3]; >8 × ULN, N = 707): 9
- ALT/AST elevations, patients (%) ([3]; >8 × ULN, N = 707): (1.3) %
- ALT/AST elevations, patient number [3, 6]: 35
- ALT/AST elevations, patients (%) [3, 6]: (5.0) %
